Like-named read-outs stand apart in the source and are kept apart here.
Legend:
[1] = acute toxicity (LD50) in mice; assay type: in vivo, mouse; conditions: in vivo, mouse
Description: (§1) In the Table 3 which follows are listed results of tests pertaining to the effectiveness of various compounds that are disclosed herein. The results are included in the several columns under letters whose significance is as follows:
(§2) A - lethal dose (LD50) to mice in milligrams per kilogram of body weight of the mouse when administered per os.
(§3) B - lethal dose (LD50) to mice in milligrams per kilogram of body weight of the mouse when administered intraperitoneally.
(§4) A. lethal dose (LD50) to mice in milligrams per kilogram body weight of the mouse when administered per os.
(§5) B. lethal dose (LD50) to mice in milligrams per kilogram body weight of the mouse administered intraperitoneally.
(§6) The values specified in Tables 4 and 5 hereinafter refer to milligrams per kilogram of body weight of the mouse.
(§7) Tests performed in accordance with the procedure described by Campbell and Richter in Acta Pharmacol. et Toxicol., vol. […] This is indicated by the results that are reported in Table 5 in which the headings A and F have the same significance as hereinbefore while the values in the column heading L pertain to the dose in milligrams per kilogram of body weight that was required to produce a lowering of the rectal temperature, which are values indicative of the depressant effect of a compound upon the central nervous system.

white mice [2] = assay: climbing test (Campbell and Richter screening); assay type: in vivo; conditions: mouse; Table 4; read-out: J. climbing test (ED50)
Description: (§8) The sedative and hypnotic effectiveness of the compounds of the invention were also ascertained by screening tests with white mice described by Campbell and Richter in Acta Pharmacol. et Toxicol. 25 (1967) page 345. In Table 4 the results of various specific screening tests are listed. These tests were as follows:
as §6

white mice [3] = assay: balance bar test (Campbell and Richter screening); assay type: in vivo; conditions: mouse; Table 4; read-out: K. balance bar test (ED50)
Description: as §8
K. balance bar test (ED50).
as §6

white mice [4] = assay: ptosis test (Campbell and Richter screening); assay type: in vivo, mouse; conditions: for F ptosis test: mouse, Table 5
Description: as §8, §6, §7

mouse [5] = assay: lowering of the rectal temperature in mice; assay type: in vivo; conditions: for dose required to produce a lowering of the rectal temperature, relative to the 4-hydroxy compound (in words): compared with Compound No. 2090; for minimal effective dose: mouse, Table 5, read-out: L dose required to produce a lowering of the rectal temperature
Description: as §6, §7

mice [6] = assay: acute toxicity (LD50) in mice; assay type: in vivo, mouse; conditions: mouse; for B - lethal dose (LD50) to mice, intraperitoneally: intraperitoneal; for B - lethal dose (LD50) to mice, intraperitoneally / A - lethal dose (LD50) to mice, per os: Table 3
Description: as §1, §2, §3, §4, §5, §6, §7

mouse [7] = assay: ataxia in mice; assay type: in vivo; conditions: for minimal effective dose: Mus musculus, read-out: C - ataxia: dose required to produce ataxia in a mouse, mouse; for minimal effective dose / C - ataxia: dose required to produce ataxia in a mouse: Table 3
Description: as §1
C - ataxia: Dose in milligrams per kilogram of body weight required to produce ataxia in a mouse.

mice [8] = assay: narcosis (lateral position) in mice; assay type: in vivo, mouse; conditions: for narcosis (in words): comparison of epimers; for ED50: ip, 0.05 h, read-out: D - narcosis (lateral position): dose (ED50) which produces narcosis for 3 minutes in 50% of the mice
Description: (§9) In the Table 3 which follows are listed results of tests pertaining to the effectiveness of various compounds that are disclosed herein.

mouse [9] = assay: prolongation of narcosis produced by hexobarbital in mice; assay type: in vivo; conditions: for prolongation of narcosis produced by hexobarbital (in words): comparison of epimers; for E - dose which prolongs narcosis produced by hexobarbital in a mouse by a factor of 4: factor of 4, Table 3
Description: as §9

[10] = ip, intraperitoneal, Table 4, read-out: B. lethal dose (LD50) to mice, intraperitoneally
[11] = po, per os, Table 4, read-out: A. lethal dose (LD50) to mice, per os
[12] = po, per os, Table 5, read-out: A lethal dose (LD50) to mice, per os
[13] = ip, intraperitoneal, Table 3, read-out: B - lethal dose (LD50) to mice, intraperitoneally
[14] = po, per os, Table 3, read-out: A - lethal dose (LD50) to mice, per os
[15] = mouse, intraperitoneal, narcosis for 3 minutes, Table 3

C=CCNC(=O)OC1CC2C(=C)C3OC(OCC)C2C1(C)O3 (centres unmarked) [compound 2658]
LD50 [1, 10]: 331 mg/kg
LD50 [1, 11]: 470 mg/kg
ED50 (white mice [2]): 185 mg/kg
ED50 (white mice [3]): 62 mg/kg

CNC(=O)OC1CC2C(C)C3OC(OC)C2C1(C)O3 (centres unmarked) [compound 2500]
LD50 [1, 10]: 954 mg/kg
LD50 [1, 11]: 1140 mg/kg
ED50 (white mice [2]): 250 mg/kg
ED50 (white mice [3]): 621 mg/kg

C=C1C2OC(OC)C3C1CC(OC(C)=O)C3(C)O2 (stereo not drawn) [Compound No. 2117, 4α-Acetoxy-8-methoxy-3-methyl-10-methylene-2,9-dioxatricyclo [4.3.1.0^3,7] decane]
LD50 [1, 12]: 774 mg/kg
F ptosis test (white mice [4]): 100 milligrams per kilogram of bod
dose required to produce a lowering of the rectal temperature, relative to the 4-hydroxy compound (in words) (mouse [5]): smaller
minimal effective dose (mouse [5]): 50 mg/kg

C=C1C2OC(OC)C3C1CC(OC(=O)NCC)C3(C)O2 (centres unmarked) [Compound No. 2067]
LD50 [1, 13]: 390 mg/kg
LD50 [1, 14]: 872 mg/kg
toxicity of the epimers (in words) (mice [6]; 2067 versus 2076): substantially the same toxicity
minimal effective dose (mouse [7]): 50 mg/kg
doses effective in producing ataxia (in words) (mouse [7]; mouse, 2067 versus 2076): identical doses are effective in producing ataxia
narcosis (in words) (mice [8]; mouse): does not produce narcosis
prolongation of narcosis produced by hexobarbital (in words) (mouse [9]): prolongs narcosis produced by hexobarbital
E - dose which prolongs narcosis produced by hexobarbital in a mouse by a factor of 4 (mouse [9]): 215 milligrams per kilogram of bod

CCNC(=O)OC1CC2C(C)C3OC(OCC)C2C1(C)O3 (centres unmarked) [compound 2157]
LD50 [1, 13]: 527 mg/kg
LD50 [1, 14]: 1470 mg/kg
ED50 (mice [8]; [15]): 100 mg/kg

COC1OC2OC3(C)C(OC(=O)NC(C)(C)C)CC(C2C)C13 (centres unmarked) [compound 2328]
LD50 [1, 10]: 1130 mg/kg
LD50 [1, 11]: 1470 mg/kg
ED50 (white mice [2]): 175 mg/kg
ED50 (white mice [3]): 56 mg/kg

C=CCNC(=O)OC1CC2C(C)C3OC(OC)C2C1(C)O3 (stereo not drawn) [Compound No. 2274, 4α-(N-Allylcarbamyloxy)-8-methoxy-3,10-dimethyl-2,9-dioxatricyclo[4.3.1.0^3,7]decane]
LD50 [1, 10]: 279 mg/kg
LD50 [1, 11]: 339 mg/kg
ED50 (white mice [2]): 75 mg/kg
ED50 (white mice [3]): 62.5 mg/kg

COC1OC2OC3(C)C(O)CC(C2C)C13 (stereo not drawn) [Compound No. 1246, 4β-hydroxy-3,10-dimethyl-8-methoxy-2,9-dioxatricyclo[4.3.1.0^3,7]decane]
LD50 [1, 13]: 1200 mg/kg
LD50 [1, 14]: > 1500 mg/kg
C - ataxia: dose required to produce ataxia in a mouse (mouse [7]; mouse): 800 milligrams per kilogram of bod
E - dose which prolongs narcosis produced by hexobarbital in a mouse by a factor of 4 (mouse [9]): 68 milligrams per kilogram of bod

COC1OC2OC3(C)C(OC(=O)CC(C)C)CC(C2C)C13 (stereo not drawn) [Compound No. 2215, 4α-Isovaleryloxy-8-methoxy-3,10-dimethyl-2,9-dioxatricyclo[4.3.1.0^3,7]decane]
LD50 [1, 12]: > 1470 mg/kg
dose producing ptosis relative to the 4-hydroxy compound (in words) (white mice [4]; compared with Compound No. 1561): one-fourth or one-half of the dose required of the 4-hydroxy-compound
F ptosis test (white mice [4]): 50 milligrams per kilogram of bod
minimal effective dose (mouse [5]): 200 mg/kg

COC1OC2OC3(C)C(O)CC(C2C)C13 (stereo not drawn) [Compound No. 1561, 4α-Hydroxy-8-methoxy-3,10-dimethyl-2,9-dioxatricyclo[4.3.1.0^3,7]decane]
LD50 [1, 12]: > 1500 mg/kg
B - lethal dose (LD50) to mice, intraperitoneally (mice [6]): 1600 milligrams per kilogram of bod
A - lethal dose (LD50) to mice, per os (mice [6]): > 1500 milligrams per kilogram of bod
C - ataxia: dose required to produce ataxia in a mouse (mouse [7]; mouse): 200 milligrams per kilogram of bod
ED50 (mice [8]; Mus musculus): 800 mg/kg
E - dose which prolongs narcosis produced by hexobarbital in a mouse by a factor of 4 (mouse [9]): 68 milligrams per kilogram of bod
F ptosis test (white mice [4]): 100 milligrams per kilogram of bod
minimal effective dose (mouse [5]): 100 mg/kg

C=C1C2OC(OC)C3C1CC(OC(=O)NC)C3(C)O2 (centres unmarked) [compound 2504]
LD50 [1, 10]: 492 mg/kg
LD50 [1, 11]: 528 mg/kg
ED50 (white mice [3]): 200 mg/kg

CCCNC(=O)OC1CC2C(C)C3OC(OC)C2C1(C)O3 (centres unmarked) [compound 2364]
LD50 [1, 10]: 244 mg/kg
LD50 [1, 11]: 327 mg/kg
ED50 (white mice [2]): 44 mg/kg
ED50 (white mice [3]): 38 mg/kg

C=C1C2OC(OCC)C3C1CC(OC(=O)NCC)C3(C)O2 (centres unmarked) [compound 2179]
LD50 [1, 13]: 802 mg/kg
LD50 [1, 14]: 944 mg/kg
minimal effective dose (mouse [7]): < 100 mg/kg
ED50 (mice [8]; [15]): < 100 mg/kg

C=C1C2OC(OC)C3C1CC(O)C3(C)O2 (stereo not drawn) [Compound No. 981, 4β-hydroxy-8-methoxy-3-methyl-10-methylene-2,9-dioxatricyclo[4.3.1.0^3,7]decane]
LD50 [1, 13]: 600 mg/kg
LD50 [1, 14]: 610 mg/kg
C - ataxia: dose required to produce ataxia in a mouse (mouse [7]; mouse): 200 milligrams per kilogram of bod
E - dose which prolongs narcosis produced by hexobarbital in a mouse by a factor of 4 (mouse [9]): 100 milligrams per kilogram of bod

C=CCNC(=O)OC1CC2C(=C)C3OC(OC)C2C1(C)O3 (stereo not drawn) [Compound No. 2286, 4α-(N-Allylcarbamyloxy)-8-methoxy-3-methyl-10-methylene-2,9-dioxatricyclo[4.3.1.0^3,7]decane]
LD50 [1, 10]: 444 mg/kg
LD50 [1, 11]: 970 mg/kg
ED50 (white mice [2]): 112 mg/kg
ED50 (white mice [3]): 50 mg/kg

C=C1C2OC(OC)C3C1CC(OC(=O)CC(C)C)C3(C)O2 (stereo not drawn) [Compound No. 2295, 4α-Isovaleryloxy-8-methoxy-3-methyl-10-methylene-2,9-dioxatricyclo[4.3.1.0^3,7]decane]
LD50 [1, 12]: > 1470 mg/kg
dose required to produce a lowering of the rectal temperature, relative to the 4-hydroxy compound (in words) (mouse [5]): smaller
minimal effective dose (mouse [5]): 100 mg/kg

COC1OC2OC3(C)C(OC(=O)NC(C)C)CC(C2C)C13 (centres unmarked) [Compound No. 2065]
B - lethal dose (LD50) to mice, intraperitoneally (mice [6]): 118 milligrams per kilogram of bod
A - lethal dose (LD50) to mice, per os (mice [6]): 156 milligrams per kilogram of bod
ratio between effective and lethal doses (in words) (mouse [7]; 2065 versus 2057, ataxia): remains constant
increase in effectiveness in producing ataxia (mouse [7]; 2065 versus epimer 2057): ten-fold increase in effectiveness
dose required for producing ataxia (mouse [7]; mouse): 12 milligrams per kilogram of body weight
C - ataxia: dose required to produce ataxia in a mouse (mouse [7]; mouse): 12 milligrams per kilogram of bod
ED50 (mice [8]; [15]): 46.4 mg/kg
narcosis (in words) (mice [8]; mouse): produces a very strong narcosis
prolongation of narcosis produced by hexobarbital (in words) (mouse [9]): prolongation of narcosis produced by hexobarbital
E - dose which prolongs narcosis produced by hexobarbital in a mouse by a factor of 4 (mouse [9]): 31.6 milligrams per kilogram of bod

C=C1C2OC(OC)C3C1CC(OC(=O)CC)C3(C)O2 (stereo not drawn) [Compound No. 2118, 4α-Propionyloxy-8-methoxy-3-methyl-10-methylene-2,9-dioxatricyclo[4.3.1.0^3,7]decane]
LD50 [1, 12]: 1140 mg/kg
F ptosis test (white mice [4]): 100 milligrams per kilogram of bod
dose required to produce a lowering of the rectal temperature, relative to the 4-hydroxy compound (in words) (mouse [5]): smaller
minimal effective dose (mouse [5]): 100 mg/kg

C=C1C2OC(OC)C3C1CC(O)C3(C)O2 (stereo not drawn) [Compound No. 2090, 4α-Hydroxy-8-methoxy-3-methyl-10-methylene-2,9-dioxatricyclo[4.3.1.0^3,7] decane]
B - lethal dose (LD50) to mice, intraperitoneally (mice [6]): 300 milligrams per kilogram of bod
A - lethal dose (LD50) to mice, per os (mice [6]): 774 milligrams per kilogram of bod
C - ataxia: dose required to produce ataxia in a mouse (mouse [7]; mouse): 25 milligrams per kilogram of bod
ED50 (mice [8]; Mus musculus): < 300 mg/kg
F ptosis test (white mice [4]): 100 milligrams per kilogram of bod
minimal effective dose (mouse [5]): 200 mg/kg
